The values below are quoted from earlier work in patent US20200268770A1, “PHARMACEUTICAL COMPOSITION USED FOR TREATING METABOLIC SYNDROME DISORDERS, INFECTIOUS DISEASES, AND COMPLICATIONS THEREOF” (priority 2017, published 2020).

SMILES strings stand for the structures. Read-outs that look alike come from different tables or passages of the source.

Data set [1] deals with C57BL/6 mice fed with high fat foods.
The subject of the next data set is 3T3-L1 cells. The following applies: 3T3-L1 cells stimulated by differentiation inducers.
Where [2] appears, read: pre-treatment, C57BL/6 mice fed with high fat foods.

`C=C(C)[C@H]1CC=C(C)CC1` [d-limonene]: in data set [1] (setting [2]), the “fasting blood glucose levels” value was “lowered”; the hepatic lipid accumulation entry is given as “prevented”; the “serum triglycerides (TG)” value was “lowered”; the “size of white and brown adipocytes” value is “decreased”. Moreover, in data set [1] (therapeutic, obese mice), the “fasting blood glucose levels” value was “reduced”, the glucose tolerance entry was “reduced”, the “high-density lipoprotein cholesterol (HDL-c)” value is on record as “increased” and the “low-density lipoprotein cholesterol (LDL-c)” value is listed as “reduced”. The “serum TG” value in data set [1] (therapeutic, obese mice) is on record as “reduced”.
For `C=C(C)[C@@H]1CC[C@]2(C)CC[C@]3(C)[C@H](CC[C@@H]4[C@@]5(C)CC[C@H](O)C(C)(C)[C@@H]5CC[C@]43C)[C@@H]12` [lupeol], where the note is “after 21 days”, the glycated hemoglobin entry is “decrease”, the nitric oxide entry was “decrease”, the progression of diabetes result is “suppressed” and the serum glucose result is recorded as “decrease”. In addition, the serum insulin levels entry (after 21 days) is given as “concomitant increase”. In addition, where the note is “in vivo”, the antioxidant levels entry was “increased” and the “content of thiobarbituric acid-reactive substances” value is given as “decrease”. In addition, in the data set on 3T3-L1 cells, the TG synthesis entry is on record as “strongly blocked” and the lipid droplet accumulation result is “strongly blocked”.
